This passage reports Ratio, LD50 and zone of inhibition results from ChEMBL document CHEMBL3046050, “Synthesis of bioactive spiro-2-[3-(2-phenyl)-3H-indolyl]-1-aryl-3-phenylaziridines and SAR studies on their antimicrobial behavior” (Med Chem Res, 2009).

Each structure is given as a SMILES string.

The subject of data set [1] is Brevundimonas diminuta. Put plainly: Antimicrobial activity against Brevundimonas diminuta at 20 ug/ml after 24 hr by disk diffusion method relative to ampicillin. The class given is functional. (In general: In agar diffusion tests the substance spreads into inoculated agar from a disc or well.)
A short description of data set [2]: Acute toxicity in Rattus norvegicus (rat). The class given is organism-based. The conditions noted are these: in vivo.
Data set [3] deals with Bacillus subtilis. Put plainly: Antimicrobial activity against Bacillus subtilis at 20 ug/ml after 24 hr by disk diffusion method. The class given is functional. The conditions noted are these: read-out: IZ.
The subject of data set [4] is Priestia megaterium. Put plainly: Antimicrobial activity against Bacillus megaterium at 20 ug/ml after 24 hr by disk diffusion method. The class given is functional. The conditions noted are these: read-out: IZ.
The subject of data set [5] is Escherichia coli. As to the kind of experiment: Antimicrobial activity against Escherichia coli at 20 ug/ml after 24 hr by disk diffusion method. The class given is functional. The conditions noted are these: read-out: IZ.
Data set [6] relates to Brevundimonas diminuta. As to the kind of experiment: Antimicrobial activity against Brevundimonas diminuta at 20 ug/ml after 24 hr by disk diffusion method. The class given is functional. The note with it: read-out: IZ.
The test system of data set [7] is Bacillus subtilis. Put plainly: Antimicrobial activity against Bacillus subtilis at 20 ug/ml after 24 hr by disk diffusion method relative to ampicillin. The class given is functional.
For data set [8], the system named is Priestia megaterium. Put plainly: Antimicrobial activity against Bacillus megaterium at 20 ug/ml after 24 hr by disk diffusion method relative to ampicillin. The class given is functional.
The subject of data set [9] is Escherichia coli. As to the kind of experiment: Antimicrobial activity against Escherichia coli at 20 ug/ml after 24 hr by disk diffusion method relative to ampicillin. The class given is functional.

As a reminder, the LD50 is the dose expected to kill half of the subjects tested. A lower LD50 goes with a more toxic substance. With `Clc1ccccc1N1C(c2ccccc2)C12C(c1ccccc1)=Nc1ccccc12` (stereo not drawn), the Ratio is 222.2 in the data set with Brevundimonas diminuta [1], 175.6 with Bacillus subtilis [7], 131.4 in the data set on Priestia megaterium [8] and 161.9 in the data set with Escherichia coli [9]. In [2], the LD50 was found to be 4040 mg/kg. Moreover, the zone of inhibition at 20 µg/mL worked out at 16.3 mm in the data set with Bacillus subtilis [3], 15.5 mm in the data set with Priestia megaterium [4], 17 mm with Escherichia coli [5] and 20 mm in the data set with Brevundimonas diminuta [6].
As to `Clc1cccc(N2C(c3ccccc3)C23C(c2ccccc2)=Nc2ccccc23)c1` (stereo not drawn), the Ratio with Brevundimonas diminuta [1] is recorded as 207.4; in the data set on Bacillus subtilis [7], 166.7; in the data set with Priestia megaterium [8] it was 121.5; in the data set with Escherichia coli [9] it was 150.8. The LD50 in data set [2] was determined as 4380 mg/kg. Moreover, the zone of inhibition at 20 µg/mL in the data set on Bacillus subtilis [3] was found to be 15.5 mm; in the data set on Priestia megaterium [4], 14.3 mm; in the data set on Escherichia coli [5], 15.8 mm; in the data set with Brevundimonas diminuta [6], 18.7 mm.
For `Cc1cccc(N2C(c3ccccc3)C23C(c2ccccc2)=Nc2ccccc23)c1` (stereo not drawn), the Ratio with Brevundimonas diminuta [1] is given as 192.6; in the data set with Bacillus subtilis [7] it was 155.9; in the data set on Priestia megaterium [8], 114.4; with Escherichia coli [9], 128.6. Besides, the 50% lethal dose (LD50) in data set [2] turned out to be 3840 mg/kg. For the same molecule, the zone of inhibition at 20 µg/mL came to 14.5 mm with Bacillus subtilis [3], 13.5 mm with Priestia megaterium [4], 13.5 mm in the data set with Escherichia coli [5] and 17.3 mm in the data set on Brevundimonas diminuta [6].
As to `O=[N+]([O-])c1ccccc1N1C(c2ccccc2)C12C(c1ccccc1)=Nc1ccccc12` (stereo not drawn), the Ratio turned out to be 244.4 in the data set with Brevundimonas diminuta [1], 207.9 in the data set on Bacillus subtilis [7], 151.1 in the data set with Priestia megaterium [8] and 174.6 in the data set on Escherichia coli [9]. This molecule also had a median lethal dose (LD50) in data set [2] of 3560 mg/kg. For the same molecule, the zone of inhibition at 20 µg/mL with Bacillus subtilis [3] was 19.3 mm; in the data set on Priestia megaterium [4] it was 17.8 mm; with Escherichia coli [5], 18.3 mm; with Brevundimonas diminuta [6], 22 mm.
Take `O=[N+]([O-])c1cccc(N2C(c3ccccc3)C23C(c2ccccc2)=Nc2ccccc23)c1` (stereo not drawn): the Ratio in the data set on Brevundimonas diminuta [1] was 229.6; with Bacillus subtilis [7] it was 184.6; in the data set on Priestia megaterium [8], 142.7; with Escherichia coli [9] it was 168.3. This molecule yielded an LD50 in data set [2] of 4500 mg/kg. For the same molecule, the zone of inhibition at 20 µg/mL in the data set with Bacillus subtilis [3] was determined as 17.2 mm; in the data set with Priestia megaterium [4] it was 16.8 mm; in the data set with Escherichia coli [5] it was 17.7 mm; in the data set on Brevundimonas diminuta [6], 20.7 mm.
For `O=[N+]([O-])c1ccc(N2C(c3ccccc3)C23C(c2ccccc2)=Nc2ccccc23)cc1` (stereo not drawn), the Ratio came to 127.8 in the data set on Brevundimonas diminuta [1], 89.6 in the data set on Bacillus subtilis [7], 73.4 in the data set with Priestia megaterium [8] and 84.1 in the data set on Escherichia coli [9]. The LD50 in [2] worked out at 5380 mg/kg. The zone of inhibition at 20 µg/mL with Bacillus subtilis [3] was 8.3 mm; with Priestia megaterium [4], 8.7 mm; in the data set with Escherichia coli [5], 8.8 mm; in the data set with Brevundimonas diminuta [6], 11.5 mm.
As for `Clc1ccc(N2C(c3ccccc3)C23C(c2ccccc2)=Nc2ccccc23)cc1` (stereo not drawn), the Ratio turned out to be 118.5 in the data set with Brevundimonas diminuta [1], 78.6 in the data set with Bacillus subtilis [7], 57.9 in the data set on Priestia megaterium [8] and 73 in the data set with Escherichia coli [9]. Moreover, the LD50 in [2] was found to be 4240 mg/kg. Further, the zone of inhibition at 20 µg/mL was 7.3 mm in the data set with Bacillus subtilis [3], 6.8 mm in the data set with Priestia megaterium [4], 7.7 mm with Escherichia coli [5] and 10.7 mm in the data set with Brevundimonas diminuta [6].
For `Oc1ccc(N2C(c3ccccc3)C23C(c2ccccc2)=Nc2ccccc23)cc1` (stereo not drawn), the Ratio stood at 85.2 with Brevundimonas diminuta [1], 59.1 in the data set on Bacillus subtilis [7], 46.6 in the data set on Priestia megaterium [8] and 57.1 in the data set with Escherichia coli [9]. In [2], this molecule displayed an LD50 of 4480 mg/kg. The zone of inhibition at 20 µg/mL turned out to be 5.5 mm in the data set on Bacillus subtilis [3], 5.5 mm in the data set on Priestia megaterium [4], 6 mm in the data set on Escherichia coli [5] and 7.7 mm with Brevundimonas diminuta [6].
Turning to `O=C(O)c1ccccc1N1C(c2ccccc2)C12C(c1ccccc1)=Nc1ccccc12` (stereo not drawn), the Ratio in the data set with Brevundimonas diminuta [1] is on record as 64.8; in the data set with Bacillus subtilis [7], 35.8; with Priestia megaterium [8], 36.7; in the data set with Escherichia coli [9] it was 39.7. The LD50 in [2] amounted to 3840 mg/kg. In addition, the zone of inhibition at 20 µg/mL with Bacillus subtilis [3] stood at 3.3 mm; with Priestia megaterium [4], 4.3 mm; in the data set with Escherichia coli [5] it was 4.2 mm; in the data set with Brevundimonas diminuta [6], 5.8 mm.
In the case of `CCOc1ccccc1N1C(c2ccccc2)C12C(c1ccccc1)=Nc1ccccc12` (stereo not drawn), the Ratio is 303.7 in the data set with Brevundimonas diminuta [1], 276 with Bacillus subtilis [7], 187.9 with Priestia megaterium [8] and 238.1 with Escherichia coli [9]. Besides, the LD50 in [2] turned out to be 4820 mg/kg. Also, the zone of inhibition at 20 µg/mL was found to be 25.7 mm with Bacillus subtilis [3], 22.2 mm with Priestia megaterium [4], 25 mm with Escherichia coli [5] and 27.3 mm with Brevundimonas diminuta [6].
As to `CCOc1cccc(N2C(c3ccccc3)C23C(c2ccccc2)=Nc2ccccc23)c1` (stereo not drawn), the Ratio worked out at 288.9 in the data set with Brevundimonas diminuta [1], 263.4 in the data set with Bacillus subtilis [7], 176.6 in the data set on Priestia megaterium [8] and 231.7 with Escherichia coli [9]. For the same molecule, the 50% lethal dose (LD50) in data set [2] worked out at 4640 mg/kg. Also, the zone of inhibition at 20 µg/mL in the data set on Bacillus subtilis [3] is 24.5 mm; in the data set on Priestia megaterium [4], 20.8 mm; in the data set on Escherichia coli [5] it was 24.3 mm; with Brevundimonas diminuta [6] it was 26 mm.
In the case of `Oc1cccc(N2C(c3ccccc3)C23C(c2ccccc2)=Nc2ccccc23)c1` (stereo not drawn), the Ratio in the data set on Brevundimonas diminuta [1] came out at 174.1; with Bacillus subtilis [7], 123.7; with Priestia megaterium [8] it was 89; with Escherichia coli [9], 100. The same molecule displayed an LD50 in data set [2] of 5080 mg/kg. Besides, the zone of inhibition at 20 µg/mL with Bacillus subtilis [3] was 11.5 mm; in the data set on Priestia megaterium [4], 10.5 mm; with Escherichia coli [5] it was 10.5 mm; in the data set on Brevundimonas diminuta [6] it was 15.7 mm.
For the molecule `Oc1ccccc1N1C(c2ccccc2)C12C(c1ccccc1)=Nc1ccccc12` (stereo not drawn), the Ratio in the data set on Brevundimonas diminuta [1] is reported as 188.9; with Bacillus subtilis [7], 136.2; in the data set with Priestia megaterium [8], 107.3; with Escherichia coli [9] it was 107.9. The LD50 in [2] came to 4360 mg/kg. Moreover, the zone of inhibition at 20 µg/mL is 12.7 mm in the data set on Bacillus subtilis [3], 12.7 mm in the data set with Priestia megaterium [4], 11.3 mm in the data set with Escherichia coli [5] and 17 mm in the data set on Brevundimonas diminuta [6].
On to `COc1cccc(N2C(c3ccccc3)C23C(c2ccccc2)=Nc2ccccc23)c1` (stereo not drawn), for which the Ratio in the data set on Brevundimonas diminuta [1] was found to be 253.7; in the data set with Bacillus subtilis [7] it was 231.2; in the data set on Priestia megaterium [8], 149.7; with Escherichia coli [9], 198.4. For the same molecule, the median lethal dose (LD50) in [2] was found to be 5120 mg/kg. The zone of inhibition at 20 µg/mL worked out at 21.5 mm with Bacillus subtilis [3], 17.7 mm in the data set with Priestia megaterium [4], 20.8 mm in the data set on Escherichia coli [5] and 22.8 mm with Brevundimonas diminuta [6].
In the case of `COc1ccccc1N1C(c2ccccc2)C12C(c1ccccc1)=Nc1ccccc12` (stereo not drawn), the Ratio was determined as 266.7 with Brevundimonas diminuta [1], 247.3 in the data set with Bacillus subtilis [7], 158.2 in the data set with Priestia megaterium [8] and 201.6 in the data set with Escherichia coli [9]. Besides, the LD50 in data set [2] was found to be 5150 mg/kg. The zone of inhibition at 20 µg/mL turned out to be 23 mm in the data set with Bacillus subtilis [3], 18.7 mm with Priestia megaterium [4], 21.2 mm in the data set on Escherichia coli [5] and 24 mm in the data set on Brevundimonas diminuta [6].
For `c1ccc(C2=Nc3ccccc3C23C(c2ccccc2)N3c2ccccc2)cc1` (stereo not drawn), the Ratio in the data set on Brevundimonas diminuta [1] is reported as 148.1; in the data set with Bacillus subtilis [7], 109.3; in the data set with Priestia megaterium [8], 83.3; in the data set on Escherichia coli [9] it was 90.5. Moreover, the median lethal dose (LD50) in data set [2] turned out to be 4240 mg/kg. The zone of inhibition at 20 µg/mL in the data set on Bacillus subtilis [3] was 10.2 mm; with Priestia megaterium [4] it was 9.8 mm; with Escherichia coli [5], 9.5 mm; in the data set with Brevundimonas diminuta [6], 13.3 mm.
For `CC1(C)S[C@@H]2[C@H](NC(=O)[C@H](N)c3ccccc3)C(=O)N2[C@H]1C(=O)O` [AMPICILLIN], the zone of inhibition at 20 µg/mL in the data set with Bacillus subtilis [3] came to 9.3 mm; with Priestia megaterium [4], 11.8 mm; in the data set on Escherichia coli [5] it was 10.5 mm; with Brevundimonas diminuta [6] it was 9 mm.
